Measurements from patent US20260250318A1, “COMPOSITIONS AND METHODS FOR CROSSING THE BLOOD BRAIN BARRIER” (VOYAGER THERAPEUTICS, INC., priority 2022, published 2026).

How the values were obtained:
brain = assay: Maturation of TTM-001 capsid, NGS enrichment in brain of CD-1 Outbred mice; type: in vivo; settings: NGS fold-enrichment of TTM-001 matured AAV capsid variants in the brain of CD-1 Outbred mice; intravenous 1.0×10^12 VG/dose; 14 days in life; RNA; relative to non-matured TTM-001 control
Text: This Example describes maturation of the TTM-001 (SEQ ID NO: 981 (amino acid) and 983 (DNA), comprising SEQ ID NO: 941) and TTM-002 (SEQ ID NO: 982 (amino acid) and 984 (DNA), comprising SEQ ID NO: 2) capsid variants to further enhance their transduction and biodistribution in the central nervous system and evolve the AAV capsid variants to provide further cross-species compatibility. Two approaches were used to mature the TTM-001 and TTM-002 capsid sequences in order to randomize and mutate within and around the peptide insert comprised within loop IV of the capsid variant. […] In the first maturation approach, sets of three contiguous amino acids were randomized across the mutagenesis region in the TTM-001 and TTM-002 sequences, which spanned from position 450 to position 466, numbered according to SEQ ID NO: 981 and 982. In the second maturation approach, mutagenic primers were used to introduce point mutations at a low frequency, scattered across the mutagenesis region in the TTM-001 and TTM-002 sequences ranging from position 449 to position 466, numbered according to SEQ ID NO: 981 and 982. AAV capsid variants arising from each maturation approach for TTM-001 were pooled together and AAV capsid variants arising from each maturation approach for TTM-002 were also pooled together, for subsequent testing and characterization in mice.
The library of pooled matured AAV capsid variants generated from TTM-001 or library of pooled matured AAV capsid variants generated from the TTM-002 matured AAV capsid variant each were intravenously injected into the tail vein of three female CD-1 Outbred mice (Charles River) at a dose of 1.0×10^12 VG/dose. After 14-days in life, the brains of the mice were isolated and RNA was extracted. Following RNA recovery and RT-PCR amplification, a systematic NGS enrichment analysis was performed to calculate the fold enrichment ratio relative to the corresponding TTM-001 or TTM-002 control, and the peptides comprised within the variants were identified. The data for the TTM-001 matured capsid variants is provided in Table 13 and the data for the TTM-002 matured capsid variants is provided in Table 14.

[1] = test system: brains, heart, liver, muscle, and DRG of the NHPs; assay: Maturation of TTM-001 and TTM-002 capsids, NGS enrichment in NHP tissues; type: in vivo
In short: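 Variants carry mutations within and flanking the loop IV peptide insert: positions 450–466 were triplet-randomized, while positions 449–466 received low-frequency point mutations. The combined pool went into two NHPs, and each peptide was scored by NGS enrichment ratio against AAV9.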

[2] = NHP DRG, NGS, relative to AAV9 control
[3] = NHP brain, NGS, relative to AAV9 control
[4] = NHP heart, NGS, relative to AAV9 control
[5] = NHP liver DNA, NGS, relative to AAV9 control
[6] = NHP liver RNA, NGS, TTM-001 and TTM-002 matured AAV capsid variants, relative to AAV9 control
[7] = NHP muscle, NGS, relative to AAV9 control
[8] = NGS fold-enrichment, DRG, NHP, relative to AAV9
[9] = NGS fold-enrichment, brain, NHP, relative to AAV9
[10] = NGS fold-enrichment, heart, NHP, relative to AAV9
[11] = NGS fold-enrichment, liver DNA, NHP, relative to AAV9
[12] = NGS fold-enrichment, liver RNA, NHP, relative to AAV9
[13] = NGS fold-enrichment, muscle, NHP, relative to AAV9

Row | Sequence | Fold enrichment over TTM-001 (brain) | Fold Enrichment relative to AAV9, DRG (NHP) [1, 2] | Fold Enrichment relative to AAV9, Brain (NHP) [1, 3] | Fold Enrichment relative to AAV9, Heart (NHP) [1, 4] | Fold Enrichment relative to AAV9, Liver DNA (NHP) [1, 5] | Fold Enrichment relative to AAV9, Liver RNA (NHP) [1, 6] | Fold Enrichment relative to AAV9, Muscle (NHP) [1, 7] | Fold Enrichment relative to AAV9, DRG (NHP) [1, 8] | Fold Enrichment relative to AAV9, Brain (NHP) [1, 9] | Fold Enrichment relative to AAV9, Heart (NHP) [1, 10] | Fold Enrichment relative to AAV9, Liver DNA (NHP) [1, 11] | Fold Enrichment relative to AAV9, Liver RNA (NHP) [1, 12] | Fold Enrichment relative to AAV9, Muscle (NHP) [1, 13]
1 | KAFNGSGSPHSKAPNQQT | 2.088 fold |  |  |  |  |  |  |  |  |  |  |  | 
2 | KTINLGCSPHSKAQNQQT |  | 0.000 fold | 0.000 fold | 0.000 fold | 0.654 fold | 12.564 fold | 0.000 fold |  |  |  |  |  | 
3 | KTINRQFSPHSKAQNQQT |  |  |  |  |  |  |  | 0.000 fold | 0.000 fold | 0.000 fold | 4.480 fold | 10.275 fold | 0.000 fold
4 | KTINRYSSPHSKAQNQQT |  |  |  |  |  |  |  | 0.000 fold | 0.000 fold | 0.000 fold | 1.544 fold | 10.926 fold | 0.000 fold
5 | KTINSCFSPHSKAQNQQT |  | 0.000 fold | 0.000 fold | 0.000 fold | 1.016 fold | 11.847 fold | 0.000 fold |  |  |  |  |  | 
6 | KTINWSRSPHSKAQNQQT |  | 0.000 fold | 0.000 fold | 0.000 fold | 5.624 fold | 14.399 fold | 0.000 fold |  |  |  |  |  | 
7 | KTINYTRSPHSKAQNQQT |  | 0.000 fold | 0.000 fold | 0.000 fold | 0.431 fold | 11.514 fold | 0.000 fold |  |  |  |  |  | 
8 | KTISGHDSPHISGQYQQT |  | 0.000 fold | 0.000 fold | 0.074 fold | 0.420 fold | 12.395 fold | 1214.588 fold |  |  |  |  |  | 
9 | KTIVGSGSPHSKPQNQQT |  |  |  |  |  |  |  | 0.000 fold | 0.000 fold | 0.000 fold | 0.894 fold | 10.381 fold | 0.000 fold
10 | KTKLCSGSPHSKAQNQQT |  | 0.000 fold | 0.000 fold | 0.000 fold | 2.139 fold | 12.570 fold | 0.000 fold |  |  |  |  |  | 
11 | KTMQRSGSPHSKAQNQQT |  | 0.000 fold | 0.000 fold | 0.000 fold | 3.159 fold | 18.020 fold | 0.000 fold |  |  |  |  |  | 
12 | KTQRKSGSPHSKAQNQQT |  | 0.000 fold | 0.000 fold | 0.000 fold | 1.439 fold | 119.659 fold | 0.000 fold |  |  |  |  |  | 
13 | KTRKRSGSPHSKAQNQQT |  | 0.000 fold | 0.000 fold | 0.000 fold | 2.075 fold | 16.603 fold | 0.000 fold |  |  |  |  |  | 
14 | KTRRPSGSPHSKAQNQQT |  | 0.000 fold | 0.000 fold | 0.000 fold | 2.384 fold | 42.374 fold | 0.000 fold |  |  |  |  |  | 
15 | KTRTRSGSPHSKAQNQQT |  | 0.000 fold | 0.000 fold | 0.000 fold | 6.894 fold | 25.852 fold | 0.000 fold |  |  |  |  |  | 
16 | KTTGRSGSPHSKAQNQQT |  |  |  |  |  |  |  | 0.000 fold | 0.000 fold | 0.000 fold | 0.126 fold | 10.863 fold | 0.000 fold
17 | KTTRCSGSPHSKAQNQQT |  | 0.000 fold | 0.000 fold | 0.000 fold | 8.168 fold | 12.639 fold | 0.000 fold |  |  |  |  |  | 
18 | KTTRKSGSPHSKAQNQQT |  | 0.000 fold | 0.000 fold | 0.000 fold | 2.617 fold | 18.849 fold | 0.000 fold |  |  |  |  |  | 
19 | KWLTGSGSPHSKAQNQQT (peptide inserted in AAV capsid) |  | 0.000 fold | 0.364 fold | 0.000 fold | 2.388 fold | 26.975 fold | 2578.486 fold |  |  |  |  |  | 
20 | KYIVGSGSPHSKAQNQQT (peptide inserted in AAV capsid) |  | 0.000 fold | 0.000 fold | 0.000 fold | 4.480 fold | 94.721 fold | 0.000 fold |  |  |  |  |  | 
21 | KYSAGSGSPHSKAQNQQT (peptide inserted in AAV capsid) |  | 0.000 fold | 0.000 fold | 0.000 fold | 1.824 fold | 41.310 fold | 0.000 fold |  |  |  |  |  | 
22 | KYSMGSGSPHSKAQNQQT (peptide inserted in AAV capsid) |  |  |  |  |  |  |  | 0.000 fold | 0.000 fold | 0.000 fold | 1.587 fold | 10.478 fold | 0.000 fold
23 | KYVFGSGSPHSKAQNQQT (peptide inserted in AAV capsid) |  | 0.000 fold | 0.000 fold | 0.000 fold | 2.346 fold | 22.232 fold | 0.000 fold |  |  |  |  |  | 
24 | KYYTGSGSPHSKAQNQQT (peptide inserted in AAV capsid) |  | 0.000 fold | 0.000 fold | 0.000 fold | 1.199 fold | 38.777 fold | 0.000 fold |  |  |  |  |  | 
